Results reported in patent US20120270237A9, “METHODS FOR THE IDENTIFICATION OF KINASE INTERACTING MOLECULES AND FOR THE PURIFICATION OF KINASE PROTEINS” (Cellzone AG, priority 2009, published 2012).

What was measured:
NEK3 = molecular target: T1, NEK3 (Homo sapiens, UniProt P51956); test: Kinobeads competition binding, L-363 cell lysate; design: endogenous in cells; host or cells: L-363 (MG132-treated); conditions: 10 μM free compound, L-363 lysate
T1 sequence (P51956 1-506): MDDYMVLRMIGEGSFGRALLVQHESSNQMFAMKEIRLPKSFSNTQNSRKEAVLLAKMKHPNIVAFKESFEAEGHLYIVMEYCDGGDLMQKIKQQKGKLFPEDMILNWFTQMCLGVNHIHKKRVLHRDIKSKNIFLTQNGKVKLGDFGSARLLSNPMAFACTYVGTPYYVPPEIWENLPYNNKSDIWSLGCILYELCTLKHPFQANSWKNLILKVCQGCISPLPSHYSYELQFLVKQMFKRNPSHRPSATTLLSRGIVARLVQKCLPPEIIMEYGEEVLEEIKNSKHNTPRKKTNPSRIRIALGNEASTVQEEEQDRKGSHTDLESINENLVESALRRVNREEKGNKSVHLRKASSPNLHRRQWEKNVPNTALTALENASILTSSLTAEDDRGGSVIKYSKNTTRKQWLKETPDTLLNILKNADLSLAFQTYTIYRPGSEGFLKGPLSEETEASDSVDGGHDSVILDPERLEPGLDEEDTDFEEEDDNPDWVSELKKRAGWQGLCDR
Procedure: (§1) To one aliquot of cell lysate 10 μM of the free compound (FIG. 3, CZC31326) was added and allowed to bind to proteins in the lysate. Then the affinity matrix with the immobilized compound was added to capture proteins that were not interacting with the previously added free compound. Beads were separated from the lysate and bead bound proteins were eluted in SDS sample buffer and subsequently separated by SDS-Polyacrylamide gel electrophoresis (FIG. 8). Suitable gel bands were cut out and subjected to in-gel proteolytic digestion with trypsin. The second lysate aliquot was processed identically, however no free compound was added (DMSO solvent control). Peptides originating from samples 1 and 2 were labeled with iTRAQ reagents (iTRAQ 114 and iTRAQ 117) and the combined samples were analyzed with a nano-flow liquid chromatography system coupled online to a tandem mass spectrometer (LC-MS/MS) experiment followed by iTRAQ reporter ion quantification in the MS/MS spectra as described in Example 2.
(§2) For this experiment the human plasma cell leukaemia line L-363 was used (German Collection of Microorganisms and Cell Cultures, DSMZ number ACC49, Braunschweig, Germany). Cells were treated for three hours with 20 μM of the proteasome inhibitor MG132 (Z-Leu-Leu-Leu-al, Sigma C2211) prior to cell harvesting.

TIE2 = molecular target: T2, TIE2 (Homo sapiens, UniProt Q02763); test: Kinobeads competition binding, HeLa Placenta lysate mix; conditions: 10 μM free compound
T2 construct: capturing and identification of kinases from mixed HeLa placenta lysates; endogenous in cells; host or cells: mixed lysate of HeLa cells and placenta tissue
T2 sequence (Q02763 23-1124): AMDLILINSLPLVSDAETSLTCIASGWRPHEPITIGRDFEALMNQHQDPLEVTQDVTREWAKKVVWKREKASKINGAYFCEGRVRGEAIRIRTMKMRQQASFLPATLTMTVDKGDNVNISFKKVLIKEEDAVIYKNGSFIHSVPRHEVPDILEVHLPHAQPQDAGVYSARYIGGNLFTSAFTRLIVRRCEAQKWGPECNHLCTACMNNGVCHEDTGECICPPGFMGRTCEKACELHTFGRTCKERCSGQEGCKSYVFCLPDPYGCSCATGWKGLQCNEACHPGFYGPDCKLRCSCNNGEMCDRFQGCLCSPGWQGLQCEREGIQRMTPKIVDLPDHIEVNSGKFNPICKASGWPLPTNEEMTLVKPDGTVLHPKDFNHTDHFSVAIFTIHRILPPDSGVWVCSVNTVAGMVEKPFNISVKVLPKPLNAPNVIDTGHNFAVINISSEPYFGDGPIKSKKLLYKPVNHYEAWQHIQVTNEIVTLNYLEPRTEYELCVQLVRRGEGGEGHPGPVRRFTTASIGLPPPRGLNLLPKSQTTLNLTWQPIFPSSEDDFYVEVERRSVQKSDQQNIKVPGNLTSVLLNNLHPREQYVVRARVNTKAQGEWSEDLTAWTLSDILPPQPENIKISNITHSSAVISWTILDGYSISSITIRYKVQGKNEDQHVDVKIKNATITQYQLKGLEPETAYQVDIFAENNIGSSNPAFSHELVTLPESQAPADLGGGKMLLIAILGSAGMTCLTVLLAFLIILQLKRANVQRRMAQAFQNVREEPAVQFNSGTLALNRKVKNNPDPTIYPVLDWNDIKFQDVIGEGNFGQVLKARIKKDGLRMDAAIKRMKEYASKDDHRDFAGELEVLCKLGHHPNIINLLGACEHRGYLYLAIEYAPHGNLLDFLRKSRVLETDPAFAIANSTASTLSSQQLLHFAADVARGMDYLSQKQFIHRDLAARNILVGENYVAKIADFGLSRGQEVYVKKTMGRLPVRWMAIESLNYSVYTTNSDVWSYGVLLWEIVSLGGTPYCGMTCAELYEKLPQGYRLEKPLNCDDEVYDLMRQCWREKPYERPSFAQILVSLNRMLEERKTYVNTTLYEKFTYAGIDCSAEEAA
Procedure: as §1, with “10).” for “8).”

SRC = molecular target: T3, SRC (Homo sapiens, UniProt P12931); test: as above; conditions: 10 μM free compound
T3 construct: capturing and identification of kinases from mixed HeLa placenta lysates; endogenous in cells; host or cells: mixed lysate of HeLa cells and placenta tissue
Procedure: as §1, with “10).” for “8).”

FLT4 = molecular target: T4, FLT4 (Homo sapiens, UniProt P35916); test: as above; conditions: 10 μM free compound
T4 construct: capturing and identification of kinases from mixed HeLa placenta lysates; endogenous in cells; host or cells: mixed lysate of HeLa cells and placenta tissue
Procedure: as §1, with “10).” for “8).”

AMPKa2 = molecular target: T5, AMPKa2 (Homo sapiens, UniProt P54646); test: as above; conditions: 10 μM free compound
T5 construct: capturing and identification of kinases from mixed HeLa placenta lysates; endogenous in cells; host or cells: mixed lysate of HeLa cells and placenta tissue
T5 sequence (P54646 whole entry): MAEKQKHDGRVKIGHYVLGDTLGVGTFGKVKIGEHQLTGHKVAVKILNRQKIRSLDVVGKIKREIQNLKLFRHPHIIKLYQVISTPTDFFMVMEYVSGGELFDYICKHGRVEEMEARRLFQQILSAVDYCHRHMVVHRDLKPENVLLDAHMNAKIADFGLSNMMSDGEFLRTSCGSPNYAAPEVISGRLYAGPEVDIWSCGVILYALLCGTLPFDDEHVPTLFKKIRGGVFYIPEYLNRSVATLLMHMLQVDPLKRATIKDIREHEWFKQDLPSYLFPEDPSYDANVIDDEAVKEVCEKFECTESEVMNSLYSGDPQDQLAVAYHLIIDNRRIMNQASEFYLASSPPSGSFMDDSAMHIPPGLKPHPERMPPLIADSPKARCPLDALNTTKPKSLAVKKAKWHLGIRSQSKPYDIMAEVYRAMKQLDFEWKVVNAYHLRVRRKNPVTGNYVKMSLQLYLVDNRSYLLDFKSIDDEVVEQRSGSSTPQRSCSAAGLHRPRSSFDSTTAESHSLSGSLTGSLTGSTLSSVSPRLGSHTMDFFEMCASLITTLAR
T5 sequence (Q9Y478 2-270 partner limits assumed): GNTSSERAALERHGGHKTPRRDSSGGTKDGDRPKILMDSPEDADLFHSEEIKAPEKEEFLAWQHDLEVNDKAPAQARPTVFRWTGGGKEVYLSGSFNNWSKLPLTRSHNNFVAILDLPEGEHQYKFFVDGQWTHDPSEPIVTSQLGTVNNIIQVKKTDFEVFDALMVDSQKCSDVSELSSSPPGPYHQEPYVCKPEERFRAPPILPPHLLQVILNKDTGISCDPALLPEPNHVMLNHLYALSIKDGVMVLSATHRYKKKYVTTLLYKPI
T5 sequence (P54619 whole entry partner): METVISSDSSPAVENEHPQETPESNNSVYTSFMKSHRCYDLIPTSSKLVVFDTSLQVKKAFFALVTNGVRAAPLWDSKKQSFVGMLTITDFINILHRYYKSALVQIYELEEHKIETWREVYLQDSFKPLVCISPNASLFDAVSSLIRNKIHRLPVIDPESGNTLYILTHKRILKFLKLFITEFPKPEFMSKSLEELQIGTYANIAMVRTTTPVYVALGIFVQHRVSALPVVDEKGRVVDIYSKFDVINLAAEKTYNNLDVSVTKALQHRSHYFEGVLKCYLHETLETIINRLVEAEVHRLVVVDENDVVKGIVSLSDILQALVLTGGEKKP
Procedure: as §1, with “10).” for “8).”

MAP3K7 = molecular target: T6, MAP3K7 (Homo sapiens, UniProt O43318); test: as above; conditions: 10 μM free compound
T6 construct: capturing and identification of kinases from mixed HeLa placenta lysates; endogenous in cells; host or cells: mixed lysate of HeLa cells and placenta tissue
T6 sequence (O43318 whole entry): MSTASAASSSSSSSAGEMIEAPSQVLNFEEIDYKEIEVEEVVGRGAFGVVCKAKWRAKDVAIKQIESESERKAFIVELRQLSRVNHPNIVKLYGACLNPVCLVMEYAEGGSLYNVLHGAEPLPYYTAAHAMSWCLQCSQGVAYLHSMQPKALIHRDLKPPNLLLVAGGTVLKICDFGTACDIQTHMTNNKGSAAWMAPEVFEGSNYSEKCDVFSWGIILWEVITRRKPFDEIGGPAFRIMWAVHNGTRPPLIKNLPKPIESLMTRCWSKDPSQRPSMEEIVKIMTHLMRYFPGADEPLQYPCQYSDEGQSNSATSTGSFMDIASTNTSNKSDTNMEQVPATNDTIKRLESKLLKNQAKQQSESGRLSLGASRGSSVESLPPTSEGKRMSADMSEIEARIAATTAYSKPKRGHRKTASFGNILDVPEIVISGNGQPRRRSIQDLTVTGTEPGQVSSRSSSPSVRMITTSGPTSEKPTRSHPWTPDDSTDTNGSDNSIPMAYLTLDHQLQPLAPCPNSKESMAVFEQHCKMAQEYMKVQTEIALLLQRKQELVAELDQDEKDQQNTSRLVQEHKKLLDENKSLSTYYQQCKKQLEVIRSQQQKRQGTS
Procedure: as §1, with “10).” for “8).”

MAP3K4 = MAP3K4 (Homo sapiens, UniProt Q9Y6R4); test: Kinobeads competition binding, L-363 cell lysate; design: endogenous in cells; host or cells: L-363 cells (DSMZ ACC49), treated with MG132 before harvest; conditions: 10 μM free compound, L-363 lysate
Procedure: as §1, §2

MAP3K1 = MAP3K1 (Homo sapiens, UniProt Q13233); test: Kinobeads competition binding, L-363 cell lysate; design: endogenous in cells; host or cells: L-363 cells (DSMZ ACC49), treated with MG132 before harvest; conditions: 10 μM free compound, L-363 lysate
Chain of MAP3K1 (Q13233 whole entry): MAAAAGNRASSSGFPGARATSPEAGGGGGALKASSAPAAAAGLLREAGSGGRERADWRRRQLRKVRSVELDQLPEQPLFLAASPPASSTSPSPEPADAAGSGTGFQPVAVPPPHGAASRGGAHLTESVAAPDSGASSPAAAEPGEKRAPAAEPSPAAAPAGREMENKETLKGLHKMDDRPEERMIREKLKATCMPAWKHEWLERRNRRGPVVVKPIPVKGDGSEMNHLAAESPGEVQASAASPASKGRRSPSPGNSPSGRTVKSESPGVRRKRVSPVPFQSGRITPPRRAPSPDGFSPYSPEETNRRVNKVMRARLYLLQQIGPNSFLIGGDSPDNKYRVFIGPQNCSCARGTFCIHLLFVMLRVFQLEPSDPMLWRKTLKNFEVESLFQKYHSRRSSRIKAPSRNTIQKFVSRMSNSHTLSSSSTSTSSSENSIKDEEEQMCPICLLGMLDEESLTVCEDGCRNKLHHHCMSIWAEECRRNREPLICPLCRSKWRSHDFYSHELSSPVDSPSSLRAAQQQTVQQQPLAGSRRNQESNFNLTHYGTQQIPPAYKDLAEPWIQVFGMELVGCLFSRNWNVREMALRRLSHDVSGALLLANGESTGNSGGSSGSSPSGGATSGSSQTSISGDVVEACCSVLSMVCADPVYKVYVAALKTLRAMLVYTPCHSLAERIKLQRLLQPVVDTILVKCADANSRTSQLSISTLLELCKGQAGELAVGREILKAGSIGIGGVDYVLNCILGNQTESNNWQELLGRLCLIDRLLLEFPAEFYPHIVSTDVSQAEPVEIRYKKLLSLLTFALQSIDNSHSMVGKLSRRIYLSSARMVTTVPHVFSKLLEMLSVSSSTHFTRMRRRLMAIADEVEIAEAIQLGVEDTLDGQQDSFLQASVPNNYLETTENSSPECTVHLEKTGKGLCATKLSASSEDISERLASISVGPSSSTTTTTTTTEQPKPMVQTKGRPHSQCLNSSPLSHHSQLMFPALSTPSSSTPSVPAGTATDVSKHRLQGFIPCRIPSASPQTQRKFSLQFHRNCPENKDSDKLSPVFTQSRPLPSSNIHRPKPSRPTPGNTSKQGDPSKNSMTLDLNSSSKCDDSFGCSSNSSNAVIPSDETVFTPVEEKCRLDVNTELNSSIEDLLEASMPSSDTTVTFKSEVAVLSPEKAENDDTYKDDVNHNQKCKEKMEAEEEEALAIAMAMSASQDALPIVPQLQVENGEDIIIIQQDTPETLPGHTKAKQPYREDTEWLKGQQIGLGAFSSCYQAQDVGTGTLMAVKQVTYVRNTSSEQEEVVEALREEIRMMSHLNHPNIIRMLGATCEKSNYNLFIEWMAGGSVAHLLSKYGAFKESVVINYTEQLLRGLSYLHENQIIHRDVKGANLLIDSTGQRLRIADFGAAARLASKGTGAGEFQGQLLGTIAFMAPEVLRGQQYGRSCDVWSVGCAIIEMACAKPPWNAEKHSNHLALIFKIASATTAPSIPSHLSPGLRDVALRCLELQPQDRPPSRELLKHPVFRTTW
Procedure: as §1, §2

MAP3K3 = MAP3K3 (Homo sapiens, UniProt Q99759); test: Kinobeads competition binding, L-363 cell lysate; design: endogenous in cells; host or cells: L-363 cells (DSMZ ACC49), treated with MG132 before harvest; conditions: 10 μM free compound, L-363 lysate
Chain of MAP3K3 (Q99759 whole entry): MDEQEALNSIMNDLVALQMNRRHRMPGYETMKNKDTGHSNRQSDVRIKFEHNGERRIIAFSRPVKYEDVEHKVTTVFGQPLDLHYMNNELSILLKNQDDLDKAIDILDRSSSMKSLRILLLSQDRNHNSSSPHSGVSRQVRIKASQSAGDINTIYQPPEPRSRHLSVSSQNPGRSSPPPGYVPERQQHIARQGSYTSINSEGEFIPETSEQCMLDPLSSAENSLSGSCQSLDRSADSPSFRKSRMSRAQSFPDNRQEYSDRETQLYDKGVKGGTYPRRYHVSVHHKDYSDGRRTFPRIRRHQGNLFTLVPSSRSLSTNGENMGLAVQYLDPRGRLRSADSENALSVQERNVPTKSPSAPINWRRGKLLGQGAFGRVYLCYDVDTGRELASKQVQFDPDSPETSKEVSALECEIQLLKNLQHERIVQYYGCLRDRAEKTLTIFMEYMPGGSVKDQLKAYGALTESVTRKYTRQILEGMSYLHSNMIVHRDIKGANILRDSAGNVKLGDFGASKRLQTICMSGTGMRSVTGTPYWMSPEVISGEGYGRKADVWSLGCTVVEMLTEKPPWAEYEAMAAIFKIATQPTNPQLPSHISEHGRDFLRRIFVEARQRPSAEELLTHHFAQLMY
Procedure: as §1, §2

inhibition at 10 µM (NEK3): 96.8%
inhibition at 10 µM (TIE2): 91.6%
inhibition at 10 µM (SRC): 92.2%
inhibition at 10 µM (FLT4): 89.3%
inhibition at 10 µM (AMPKa2): 95.2%
inhibition at 10 µM (MAP3K7): 82.1%
inhibition at 10 µM (MAP3K4): 95.8%
inhibition at 10 µM (MAP3K1): 96.2%
inhibition at 10 µM (MAP3K3): 97.4%
SMILES: CS(=O)(=O)Nc1ccccc1Nc1nc(Nc2cccc(OCCN)c2)ncc1Cl [CZC31326, N-(2-(2-(3-(2-aminoethoxy)phenylamino)-5-chloropyrimidin-4-ylamino)phenyl)methanesulfonamide]
